The source of these data is patent US11999727B2 (Tango Therapeutics, Inc., priority 2020, dated 2024).

For assay [1], the system named is HAP1 MTAP-intact cell line. In words: SDMA in-cell western assay, HAP1 MTAP-intact. The class given is cell-based. The following applies: Homo sapiens, HAP1, SDMA in-cell western, HAP1 MTAP-intact; read-out: MTAP HAP1 intact IC50. In short, it runs like this:
(§1)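 IC50 values come from SDMA signal quantified by in-cell western in two HAP1 lines, one with native MTAP levels and one lacking MTAP.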

The target in assay [2] is T1, PRMT5 (Homo sapiens, UniProt O14744).
T1 construct: purchased Viva (custom protein)
T1 sequence (O14744 whole entry): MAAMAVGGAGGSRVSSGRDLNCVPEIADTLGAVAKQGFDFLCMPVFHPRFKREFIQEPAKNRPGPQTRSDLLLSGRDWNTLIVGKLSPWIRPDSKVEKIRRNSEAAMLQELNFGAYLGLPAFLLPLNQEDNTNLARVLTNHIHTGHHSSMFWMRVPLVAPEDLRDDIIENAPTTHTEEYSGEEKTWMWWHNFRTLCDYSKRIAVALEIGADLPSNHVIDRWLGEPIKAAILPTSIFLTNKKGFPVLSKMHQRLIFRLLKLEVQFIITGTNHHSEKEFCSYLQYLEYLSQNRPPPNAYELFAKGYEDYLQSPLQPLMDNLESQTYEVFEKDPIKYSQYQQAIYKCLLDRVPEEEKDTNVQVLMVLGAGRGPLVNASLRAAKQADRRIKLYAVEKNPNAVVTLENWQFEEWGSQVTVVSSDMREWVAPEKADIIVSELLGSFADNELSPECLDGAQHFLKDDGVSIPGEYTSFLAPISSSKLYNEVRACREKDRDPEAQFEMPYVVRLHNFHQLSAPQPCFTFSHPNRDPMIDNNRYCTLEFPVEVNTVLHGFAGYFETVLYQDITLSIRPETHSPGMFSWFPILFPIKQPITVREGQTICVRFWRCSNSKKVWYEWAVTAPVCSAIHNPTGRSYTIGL
T1 sequence (Q9BQA1 whole entry partner): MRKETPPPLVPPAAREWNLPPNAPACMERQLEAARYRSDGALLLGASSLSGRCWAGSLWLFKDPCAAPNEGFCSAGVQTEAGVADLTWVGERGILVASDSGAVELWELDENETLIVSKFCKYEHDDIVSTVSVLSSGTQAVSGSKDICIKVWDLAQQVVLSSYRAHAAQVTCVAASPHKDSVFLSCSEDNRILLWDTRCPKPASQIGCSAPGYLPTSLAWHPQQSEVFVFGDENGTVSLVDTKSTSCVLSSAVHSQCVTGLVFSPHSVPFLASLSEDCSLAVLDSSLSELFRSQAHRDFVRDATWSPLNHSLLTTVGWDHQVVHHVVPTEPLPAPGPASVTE
The assay can be described thus: PRMT5 biochemical IC50 assay with no cofactor. The conditions noted are these: PRMT5, no cofactor. From the text:
Table 1 indicates IC50 values (μM) against PRMT5 for exemplary compounds in the presence of SAM as cofactor, with no cofactor, and with MTA as cofactor, respectively (columns 4-6). […] Ki values can be calculated from the IC50 values as described in the Examples section. As detailed in the Examples section, for the assay performed in the presence of SAM, IC50=Ki×1.5 (Ki=IC50/1.5).

Assay [3] has as its system HAP1 MTAP-deleted cell line. In words: SDMA in-cell western assay, HAP1 MTAP-deleted. In kind it is cell-based. The following applies: for IC50: Homo sapiens, HAP1, SDMA in-cell western, HAP1 MTAP-deleted; for MTAP intact/deleted ratio: SDMA in-cell western. In short, it runs like this:
as §1

Assay [4] relates to HAP1 MTAP-deleted cell line. In words: Viability assay, MTAP-deleted cell line. The class given is cell-based. The following applies: Homo sapiens, read-out: HAP1 MTAP deleted viability. From the text:
Table 1 additionally indicates IC50 values in a viability assay for the MTAP-deleted cell line (column 10), indicating the effect of treatment with compound on cell survival.

In assay [5] the target is T1, PRMT5. In words: PRMT5 biochemical IC50 assay with MTA as cofactor. The following applies: PRMT5, MTA as cofactor; read-out: MTA IC50.
Assay [6] concerns the target T1, PRMT5. In words: PRMT5 biochemical IC50 assay with SAM as cofactor. The conditions noted are these: PRMT5, SAM as cofactor; read-out: SAM IC50.
[7] abbreviates: read-out: HAP1 MTAP deleted IC50.
[8] abbreviates: IC50 ratio HAP1 MTAP-intact vs HAP1 MTAP-deleted.
Setting [9] is: HAP1, viability assay, MTAP-deleted cell line.
[10] abbreviates: read-out: HAP 1 MTAP deleted IC50.
Setting [11] is: IC50 ratio HAP1 MTAP-intact / HAP1 MTAP-deleted.
The mark [12] stands for this setting: HAP1, viability IC50, MTAP-deleted cell line.
Where [13] appears, read: read-out: No Cofactor/ rel IC50.
[14] abbreviates: HAP1, viability, HAP1 MTAP-deleted cell line.

The structures appear in SMILES notation. Some results are limits rather than exact numbers.

With `CCc1cc(NC(=O)C(=O)N2CC(C)CCC2c2ccc3sc(C4CCN(C)CC4C)nc3c2)cnc1N` (racemic) [Compound 1131, N-(6-amino-5-ethyl-3-pyridyl)-2-oxo-2-[rac-(2R,5S)-5-methyl-2-[2-[rac-(3R,4R)-1,3-dimethyl-4-piperidyl]-1,3-benzothiazol-5-yl]-1-piperidyl]acetamide], the IC50 in assay [1] is below 100 nM; in assay [2] (read-out: No Cofactor/rel IC50), below 50 nM; in assay [3] (setting [7]), below 100 nM; in assay [4] (setting [9]), below 1000 nM; in assay [5], below 50 nM; in assay [6] it was below 50 nM. The MTAP intact/deleted ratio entry in assay [3] (setting [8]) is reported as “B (an IC50 ratio greater than or equal to 3 fold but lower than 10 fold)”.

`CCc1cc(NC(=O)C(=O)N2C[C@@H](C)CC[C@@H]2c2ccc(NS(C)(=O)=O)cc2)cnc1N` (single isomer, unassigned) [Compound 902]: the IC50 is 100 to 1000 nM in assay [1]; below 50 nM in assay [2] (read-out: No Cofactor/rel IC50); below 100 nM in assay [3] (setting [10]); below 1000 nM in assay [4] (setting [9]); below 50 nM in assay [5]; 50 to 500 nM in assay [6]. Also, the MTAP intact/deleted ratio result in assay [3] (setting [11]) is recorded as “A (an IC50 ratio greater than or equal to 10 fold)”.

As to `Cc1cc(NC(=O)C(=O)N2C[C@H](C)CC[C@H]2c2ccc(S(N)(=O)=O)cc2)cnc1N` (racemic) [Compound 662, N-(6-amino-5-methyl-3-pyridyl)-2-[(2S,5R)-5-methyl-2-(4-sulfamoylphenyl)-1-piperidyl]-2-oxo-acetamide], the IC50 was above 1000 nM in assay [1]; 50 to 500 nM in assay [2] (read-out: No Cofactor/rel IC50); 100 to 1000 nM in assay [3] (setting [10]); above 10000 nM in assay [4] (setting [12]); 50 to 500 nM in assay [5]; 50 to 500 nM in assay [6]. In addition, the MTAP intact/deleted ratio result in assay [3] (setting [11]) is on record as “A (an IC50 ratio greater than or equal to 10 fold)”.

Take `Cc1nc2cc([C@H]3CC[C@H](C)CN3C(=O)C(=O)Nc3cnc(N)c(C)c3)ccc2[nH]1` (single isomer, unassigned) [Compound 947]: the IC50 in assay [1] is 100 to 1000 nM; in assay [2] (read-out: No Cofactor/rel IC50), 50 to 500 nM; in assay [3] (setting [10]) it was below 100 nM; in assay [4] (setting [9]) it was below 1000 nM; in assay [5] it was below 50 nM; in assay [6], 50 to 500 nM. Further, the MTAP intact/deleted ratio entry in assay [3] (setting [11]) is reported as “A (an IC50 ratio greater than or equal to 10 fold)”.

As to `COc1ncc(NC(=O)C(=O)N2C[C@@H](C)CC[C@@H]2c2ccc3sc(CN(C)C)nc3c2)cc1C(N)=O` [Compound 1162, 5-(2-((2R,5S)-2-(2-((dimethylamino)methyl)benzo[d]thiazol-5-yl)-5-methylpiperidin-1-yl)-2-oxoacetamido)-2-methoxynicotinamide], the IC50 in assay [1] was 100 to 1000 nM; in assay [2] (read-out: No Cofactor/rel IC50), below 50 nM; in assay [3] (setting [7]), below 100 nM; in assay [4] (setting [9]) it was below 1000 nM; in assay [5] it was below 50 nM; in assay [6], 50 to 500 nM. The MTAP intact/deleted ratio result in assay [3] (setting [8]) is recorded as “A (an IC50 ratio greater than or equal to 10 fold)”.

Consider `CCc1cc(NC(=O)C(=O)N2C[C@@H](C)CC[C@@H]2c2ccc(NC(C)=O)cc2)cnc1N` (single isomer, unassigned) [Compound 890], for which the IC50 in assay [1] was 100 to 1000 nM; in assay [2] (read-out: No Cofactor/rel IC50), below 50 nM; in assay [3] (setting [10]), below 100 nM; in assay [4] (setting [9]) it was below 1000 nM; in assay [5], below 50 nM; in assay [6], 50 to 500 nM. The MTAP intact/deleted ratio result in assay [3] (setting [11]) was “A (an IC50 ratio greater than or equal to 10 fold)”.

As for `Cc1cc(NC(=O)C(=O)N2C[C@H](C)CC[C@H]2c2cnc3c(c2)CCC(=O)N3)cnc1N` (racemic) [Compound 923, rac-N-(6-Amino-5-methyl-3-pyridyl)-2-[(2S,5R)-5-methyl-2-(7-oxo-6,8-dihydro-5H-1,8-naphthyridin-3-yl)-1-piperidyl]-2-oxo-acetamide], the IC50 in assay [1] is above 1000 nM; in assay [2] (read-out: No Cofactor/rel IC50), 50 to 500 nM; in assay [3] (setting [10]), 100 to 1000 nM; in assay [4] (setting [9]), 1000 to 10000 nM; in assay [5], 50 to 500 nM; in assay [6] it was 50 to 500 nM. The MTAP intact/deleted ratio result in assay [3] (setting [11]) was “A (an IC50 ratio greater than or equal to 10 fold)”.

Turning to `CCc1cc(NC(=O)C(=O)N2C[C@H](C)CC[C@H]2c2ccc(N3CCN(C)CC3)cc2)cnc1N` (single isomer, unassigned) [Compound 1116], the IC50 in assay [1] was above 1000 nM; in assay [2] (read-out: No Cofactor/rel IC50), above 500 nM; in assay [3] (setting [7]) it was above 1000 nM; in assay [4] (setting [9]) it was above 10000 nM; in assay [5], above 500 nM; in assay [6], above 500 nM.

As for `Cc1cc(NC(=O)C(=O)N2C[C@H](C)CC[C@H]2c2cnc3scnc3c2)cnc1N` (racemic) [Compound 685, N-(6-amino-5-methyl-3-pyridyl)-2-[(2S,5R)-5-methyl-2-thiazolo[5,4-b]pyridin-6-yl-1-piperidyl]-2-oxo-acetamide], the IC50 in assay [1] is above 1000 nM; in assay [2] (read-out: No Cofactor/rel IC50), 50 to 500 nM; in assay [3] (setting [10]), 100 to 1000 nM; in assay [4] (setting [12]), above 10000 nM; in assay [5], 50 to 500 nM; in assay [6], above 500 nM. Besides, the MTAP intact/deleted ratio result in assay [3] (setting [11]) is listed as “A (an IC50 ratio greater than or equal to 10 fold)”.

For `COc1ncc(NC(=O)C(=O)N2C[C@@H](C)CC[C@@H]2c2ccc3nn([C@H]4CCN(C)C4)cc3c2)cc1C(N)=O` (racemic) [Compound 1318, 2-Methoxy-5-[[2-oxo-2-[rac-(2R,5S)-5-methyl-2-[2-[rac-(3S)-1-methylpyrrolidin-3-yl]indazol-5-yl]-1-piperidyl]acetyl]amino]pyridine-3-carboxamide], the IC50 in assay [1] is 100 to 1000 nM; in assay [2] (setting [13]), below 50 nM; in assay [3] (setting [10]), below 100 nM; in assay [4] (setting [14]) it was below 1000 nM; in assay [5] it was below 50 nM; in assay [6], 50 to 500 nM. Moreover, in assay [3] (setting [11]), the “MTAP intact/deleted ratio” value was “A (an IC50 ratio greater than or equal to 10 fold)”.

For the compound `C[C@@H]1CC[C@@H](c2cc[nH]n2)N(C(=O)C(=O)Nc2cncc(C(N)=O)c2)C1` (single isomer, unassigned) [Compound 1007], the IC50 in assay [1] was above 1000 nM; in assay [2] (read-out: No Cofactor/rel IC50), above 500 nM; in assay [3] (setting [10]), above 1000 nM; in assay [4] (setting [9]), above 10000 nM; in assay [5], above 500 nM; in assay [6], above 500 nM. In addition, the MTAP intact/deleted ratio result in assay [3] (setting [11]) is listed as “B (an IC50 ratio greater than or equal to 3 fold but lower than 10 fold)”.

In the case of `C[C@H]1CC[C@H](c2ccc(NS(C)(=O)=O)cc2)N(C(=O)C(=O)Nc2cncc(C(N)=O)c2)C1` (single isomer, unassigned) [Compound 462], the IC50 in assay [1] is above 1000 nM; in assay [2] (read-out: No Cofactor/rel IC50) it was 50 to 500 nM; in assay [3] (setting [7]) it was 100 to 1000 nM; in assay [4] (setting [9]) it was 1000 to 10000 nM; in assay [5], below 50 nM; in assay [6], 50 to 500 nM. Besides, the MTAP intact/deleted ratio result in assay [3] (setting [11]) is “A (an IC50 ratio greater than or equal to 10 fold)”.

With `CCc1cc(NC(=O)C(=O)N2C[C@@H](C)CC[C@@H]2c2ccc(N3CCN(C)CC3)cc2)cnc1N` (single isomer, unassigned) [Compound 1371], the IC50 in assay [1] was 100 to 1000 nM; in assay [2] (setting [13]), below 50 nM; in assay [3] (setting [10]) it was below 100 nM; in assay [4] (setting [14]), below 1000 nM; in assay [5], below 50 nM; in assay [6], 50 to 500 nM. In addition, the “MTAP intact/deleted ratio” value in assay [3] (setting [11]) was “A (an IC50 ratio greater than or equal to 10 fold)”.
